Key:
Format in all cases: cell-based
Mikroorganismen = test: synergistic enhancement of antimicrobial agents by cyclic 1,2-alkylene carbonates; conditions: combination of cyclic 1,2-alkylene carbonate with preservative or antimicrobial additive
Description: Die Verwendung dieser zyklischen 1,2-Alkylencarbonate zur Herstellung von Mischungen mit herkömmlichen Konservierungsmitteln und der erfindungsgemäße Einsatz dieser Mischungen in kosmetischen oder dermatologischen Anwendungen zeigte überraschenderweise, dass die Effizienz der Konservierungsmittel in Konzentrationen, die für sich allein keine antimikrobielle Wirkung mehr zeigten, durch den Zusatz der zyklischen 1,2-Alkylencarbonate erheblich gesteigert werden kann und somit der Anteil der Konservierungsmittel in den entsprechenden Produkten signifikant gesenkt werden konnte.
Zyklische 1,2-Alkylencarbonate, für die dieser synergistische Effekt nachgewiesen werden konnten, finden sich bevorzugt in der Gruppe der linearen und verzweigten 1,2-Alkylencarboate mit einer Kettenlänge von n = 4 - 8, z.B. 1,2-Butylencarbonat, 1,2-Pentylencarbonat, 1,2-Hexylencarbonat und 1,2-Octylencarbonat.
Konservierungsmittel im Sinne der Erfindung, für die dieser synergistische Effekt nachgewiesen werden konnte, sind Methylparaben, Ethylparaben, Propylparaben, Isopropylparaben, Butylparaben und die Mischungen dieser Parabene, Phenoxyethanol, Benzoesäure und ihre Ester und Salze, Sorbinsäure und ihre Salze sowie Benzylalkohol. Die zu erwartenden synergistischen Effekte von 1,2-Alkylencarbonaten mit Iodopropinylbutylcarbamat, Formaldehyd and Formaldehyd-Abspalter (z.B. DMDM-Hydantoin, Imidazolinylharnstoff, Paraformaldehyd), Chlorphenesin, Bronopol, Methyldibromglutaronitril, Dehydracetsäure und ihre Salze, Polyaminopropylbiguanide, Chlorhexidin und seine Derivate (z.B. Chlorhexidinacetat, Chlorhexidingluconat, Chlorhexidinhydrochlorid), Methylisothiazolinon und Methylchloroisothiazolinone neben den in Anhang 6, Teil A und B der Kosmetikverordnung aufgeführten weiteren Stoffklassen oder Mischungen der genannten Konservierungsmittel werden ebenfalls in dieser Erfindung beansprucht.
Multifunktionellen Kosmetikadditive mit antimikrobiellen Eigenschaften im Sinne dieser Erfindung finden sich vor allem in der Gruppe der mittelkettigen polaren Substanzen. Diese Gruppe umfasst Polyole mit 5 - 12 Kohlenstoffatomen, wie z.B. Pentylenglycol, Hexylenglycol, 1,2-Hexandiol, Caprylyl Glycol oder 2-Methyl-1,3-propandiol, Monoester aus Glycerin und Fettsäuren der Kettenlänge n = 6 - 12, wie z.B. Glyceryl Caprylate, Glyceryl Caprate oder Glyceryl Laurate, Ether der Glycerins mit linearen oder verzweigten Alkanolen der Kettenlänge n = 6 - 12, wie z.B. das Ethylhexylglycerin sowie N-Acylderivate von Aminosäuren, z.B. N.Undecenylglycin.

Candida Albicans = test: microbiological challenge test (preservative efficacy, Ph. Eur. 1997 5.1.3); conditions: emulsion with 0,50 preservative, 2,00 carbonate where named
Description: (§1) Ergebnisse des mikrobiologischen Belastungstests, durchgeführt nach europäischem Arzneibuch 1997: 5.1.3 Prüfung auf ausreichende Konservierung (entspricht Deutschem Arzneibuch: VIII.14) für die Beispielrezeptur nach 1.:
(§2) Ergebnisse des mikrobiologischen Belastungstests, durchgeführt nach europäischem Arzneibuch 1997: 5.1.3 Prüfung auf ausreichende Konservierung (entspricht Deutschem Arzneibuch: VIII.14) für die Beispielrezeptur nach 3.:
(§3) Ergebnisse des mikrobiologischen Belastungstests, durchgeführt nach europäischem Arzneibuch 1997: 5.1.3 Prüfung auf ausreichende Konservierung (entspricht Deutschem Arzneibuch: VIII.14) für die Beispielrezeptur nach 4.:
(§4) Ergebnisse des mikrobiologischen Belastungstests, durchgeführt nach europäischem Arzneibuch 1997: 5.1.3 Prüfung auf ausreichende Konservierung (entspricht Deutschem Arzneibuch: VIII.14) für die Beispielrezeptur nach 5.:
(§5) Ergebnisse des mikrobiologischen Belastungstests, durchgeführt nach europäischem Arzneibuch 1997: 5.1.3 Prüfung auf ausreichende Konservierung (entspricht Deutschem Arzneibuch: VIII.14) für die Beispielrezeptur nach 6.: […]

Pseudomonas Aeruginosa = test: as above; conditions: emulsion with 0,50 preservative, 2,00 carbonate where named
Description: as §1, §2, §3, §4, §5

Staphylococcus aureus = test: as above; conditions: emulsion with 0,50 preservative, 2,00 carbonate where named
Description: as §1, §2, §3, §4, §5

Aspergillus Niger = test: as above; conditions: emulsion with 0,50 preservative, 2,00 carbonate where named
Description: as §1, §2, §3, §4, §5

Escherichia Coli = test: as above; conditions: emulsion with 0,50 preservative, 2,00 carbonate where named
Description: as §1, §2, §3, §4, §5

Compound | synergistische Effekt (Mikroorganismen) | Koloniebildende Einheiten / g nach Beimpfung mit: Candida Albicans (Candida Albicans; 0 Tage (inoculum)) | Koloniebildende Einheiten / g nach Beimpfung mit: Candida Albicans (Candida Albicans; 2 Tage) | Koloniebildende Einheiten / g nach Beimpfung mit: Candida Albicans (Candida Albicans; 7 Tage) | Koloniebildende Einheiten / g nach Beimpfung mit: Candida Albicans (Candida Albicans; 14 Tage) | Koloniebildende Einheiten / g nach Beimpfung mit: Candida Albicans (Candida Albicans; 28 Tage) | Koloniebildende Einheiten / g nach Beimpfung mit: Pseudomonas Aeruginosa (Pseudomonas Aeruginosa; 0 Tage (inoculum)) | Koloniebildende Einheiten / g nach Beimpfung mit: Pseudomonas Aeruginosa (Pseudomonas Aeruginosa; 2 Tage) | Koloniebildende Einheiten / g nach Beimpfung mit: Pseudomonas Aeruginosa (Pseudomonas Aeruginosa; 7 Tage) | Koloniebildende Einheiten / g nach Beimpfung mit: Pseudomonas Aeruginosa (Pseudomonas Aeruginosa; 14 Tage) | Koloniebildende Einheiten / g nach Beimpfung mit: Pseudomonas Aeruginosa (Pseudomonas Aeruginosa; 28 Tage) | Koloniebildende Einheiten / g nach Beimpfung mit: Staphylococcus aureus (Staphylococcus aureus; 0 Tage (inoculum)) | Koloniebildende Einheiten / g nach Beimpfung mit: Staphylococcus aureus (Staphylococcus aureus; 2 Tage) | Koloniebildende Einheiten / g nach Beimpfung mit: Staphylococcus aureus (Staphylococcus aureus; 7 Tage) | Koloniebildende Einheiten / g nach Beimpfung mit: Staphylococcus aureus (Staphylococcus aureus; 14 Tage) | Koloniebildende Einheiten / g nach Beimpfung mit: Staphylococcus aureus (Staphylococcus aureus; 28 Tage) | Koloniebildende Einheiten / g nach Beimpfung mit: Aspergillus Niger (Aspergillus Niger; 0 Tage (inoculum)) | Koloniebildende Einheiten / g nach Beimpfung mit: Aspergillus Niger (Aspergillus Niger; 2 Tage) | Koloniebildende Einheiten / g nach Beimpfung mit: Aspergillus Niger (Aspergillus Niger; 7 Tage) | Koloniebildende Einheiten / g nach Beimpfung mit: Aspergillus Niger (Aspergillus Niger; 14 Tage) | further results
CCC1COC(=O)O1 (stereo not drawn) [BC, 1,2-Butylencarbonat] | Besonders ausgeprägt Effekte |  |  |  |  |  |  |  |  |  |  |  |  |  |  |  |  |  |  |  | 
OCc1ccccc1 [Benzylalkohol] |  | 410000 Koloniebildende Einheiten / g | 70000 Koloniebildende Einheiten / g | 50000 Koloniebildende Einheiten / g | 50000 Koloniebildende Einheiten / g | 45000 Koloniebildende Einheiten / g | 210000 Koloniebildende Einheiten / g | 40000 Koloniebildende Einheiten / g | 12000 Koloniebildende Einheiten / g | 1000 Koloniebildende Einheiten / g | <10 Koloniebildende Einheiten / g | 250000 Koloniebildende Einheiten / g | 100000 Koloniebildende Einheiten / g | 4000 Koloniebildende Einheiten / g | <10 Koloniebildende Einheiten / g | <10 Koloniebildende Einheiten / g | 170000 Koloniebildende Einheiten / g | 64000 Koloniebildende Einheiten / g | 60000 Koloniebildende Einheiten / g | 59000 Koloniebildende Einheiten / g | Koloniebildende Einheiten / g nach Beimpfung mit: Aspergillus Niger (Aspergillus Niger; 28 Tage): 61000 Koloniebildende Einheiten / g; Koloniebildende Einheiten / g nach Beimpfung mit: Escherichia Coli (Escherichia Coli; 0 Tage (inoculum)): 810000 Koloniebildende Einheiten / g; Koloniebildende Einheiten / g nach Beimpfung mit: Escherichia Coli (Escherichia Coli; 2 Tage): 100000 Koloniebildende Einheiten / g; Koloniebildende Einheiten / g nach Beimpfung mit: Escherichia Coli (Escherichia Coli; 7 Tage): 100000 Koloniebildende Einheiten / g; Koloniebildende Einheiten / g nach Beimpfung mit: Escherichia Coli (Escherichia Coli; 14 Tage): 52000 Koloniebildende Einheiten / g; Koloniebildende Einheiten / g nach Beimpfung mit: Escherichia Coli (Escherichia Coli; 28 Tage): 8000 Koloniebildende Einheiten / g
CCCCCCC(O)CO (stereo not drawn) [Caprylyl Glycol] | Besonders ausgeprägte Effekte |  |  |  |  |  |  |  |  |  |  |  |  |  |  |  |  |  |  |  | 
CCCCCCCC(=O)OCC(O)CO (stereo not drawn) [Glyceryl Caprylate] | Besonders ausgeprägte Effekte |  |  |  |  |  |  |  |  |  |  |  |  |  |  |  |  |  |  |  | 
CCCC1COC(=O)O1 (stereo not drawn) [PC, 1,2-Pentylencarbonat] | Besonders ausgeprägt Effekte |  |  |  |  |  |  |  |  |  |  |  |  |  |  |  |  |  |  |  | 
OCCOc1ccccc1 [Phenoxyethanol] |  | 310000 Koloniebildende Einheiten / g | 100000 Koloniebildende Einheiten / g | 100000 Koloniebildende Einheiten / g | 100000 Koloniebildende Einheiten / g | 80000 Koloniebildende Einheiten / g | 600000 Koloniebildende Einheiten / g | 8000 Koloniebildende Einheiten / g | 10000 Koloniebildende Einheiten / g | 10000 Koloniebildende Einheiten / g | 10000 Koloniebildende Einheiten / g | 380000 Koloniebildende Einheiten / g | 100000 Koloniebildende Einheiten / g | 100000 Koloniebildende Einheiten / g | 84000 Koloniebildende Einheiten / g | 80000 Koloniebildende Einheiten / g | 320000 Koloniebildende Einheiten / g | 60000 Koloniebildende Einheiten / g | 60000 Koloniebildende Einheiten / g | 60000 Koloniebildende Einheiten / g | Koloniebildende Einheiten / g nach Beimpfung mit: Aspergillus Niger (Aspergillus Niger; 28 Tage): 50000 Koloniebildende Einheiten / g; Koloniebildende Einheiten / g nach Beimpfung mit: Escherichia Coli (Escherichia Coli; 0 Tage (inoculum)): 3000000 Koloniebildende Einheiten / g; Koloniebildende Einheiten / g nach Beimpfung mit: Escherichia Coli (Escherichia Coli; 2 Tage): 100000 Koloniebildende Einheiten / g; Koloniebildende Einheiten / g nach Beimpfung mit: Escherichia Coli (Escherichia Coli; 7 Tage): 100000 Koloniebildende Einheiten / g; Koloniebildende Einheiten / g nach Beimpfung mit: Escherichia Coli (Escherichia Coli; 14 Tage): 100000 Koloniebildende Einheiten / g; Koloniebildende Einheiten / g nach Beimpfung mit: Escherichia Coli (Escherichia Coli; 28 Tage): 70000 Koloniebildende Einheiten / g

— patent EP1752193A1, “Use of one or more cyclic 1,2-alkylene carbonates as stabilizer and activity enhancer for preservatives, corresponding composition” (Dr. Straetmans Chemische Produkte GmbH, priority 2005, dated 2007)
